The target of the experiment is T1, nitrogen monoxide synthase (NO synthase) (Rattus norvegicus, UniProt P29476).
T1 construct: the supernatant was then decanted off and frozen in portions; from tissue; host or cells: rat cerebellum (homogenate, 20,000 g supernatant)
As to the kind of experiment: HTS-NOS assay (nitrogen monoxide synthase assay). The class given is biochemical. The following applies: compound at 10 μM; enzyme preparation from rat cerebella; [3H]-arginine substrate. The text has this:
This assay makes it possible to determine the percentage inhibition of NO synthase by a compound of the general formula I used according to the invention by measuring NOS activity on exposure to the compound. NO synthase is here mixed under suitable conditions together with radioactively labelled arginine and the particular compound of the general formula I. After termination of the NO formation reaction at a predetermined time, the quantity of unconverted arginine is directly or indirectly determined. […] This assay may be carried out at follows: • (a) Incubation of the NO synthase with labelled arginine as the substrate in a reaction vessel, • (b) Separation of the labelled arginine from the labelled citrulline optionally arising as a product of the enzymatic reaction at a time at which the concentration of citrulline is rising, • (c) Measurement of the quantity of arginine separated in each case.
Separation is performed by means of a filter plate membrane.
Radioactive arginine is used as the substrate in this HTS-NOS assay. Depending on the type of microtitre plate (MTP), the assay volume may be selected in the range between 25 μl and 250 μl. Depending on the enzyme source used, cofactors and coenzymes are added. The batches are incubated in this microtitre plate (assay MTP) according to step (a) at room temperature and, depending on the enzyme activity used (units), lasts between 5 and 60 minutes. On completion of incubation (step (a)), the plate is placed in a cell harvester, which is equipped with an MTP which has a cation exchange membrane as a filter bottom (filter MTP). All the batches from the assay MTP are transferred into this filter MTP and suction filtered through a cation exchange filter plate, a paper filter loaded with phosphate groups. The filter MTP is then washed with buffer or water. This procedure binds the remaining substrate arginine onto the cation exchanger, while the enzymatically formed radioactive citrulline is quantitatively eluted. Once the filter MTP has been dried and scintillation liquid added, the bound arginine can be counted in the scintillation counter. Low radioactivity indicates an uninhibited NOS reaction. An inhibited enzyme reaction means that the radioactive arginine has not been converted. This means that there is a high level of radioactivity on the filter.
• Arginine, L-[2,3,4-^3H]-monohydrochloride; item no. […] The pH value of the buffer was adjusted to 7.4 at 25° C. • Washing medium: H2O Enzyme Preparation
Rat cerebella were used as the starting tissue. The animals were stunned and killed, the brain tissue, the cerebellum, was dissected out, 1 ml of enzyme preparation buffer (4° C.) was added per cerebellum, and the tissue was disrupted for 1 min at 6000 rpm in a Polytron homogeniser. The mixture was then centrifuged at 4° C. for 15 min at 20,000 g, and the supernatant was then decanted off and frozen in portions at −80° C. (discarding the precipitate).
96-Well MTPs with a well capacity of ≦250 μl were used Pipetting sequence: see table 1:
Once the pipetting operation was complete, a lid was laid on top of this MTP (assay MTP). Incubation at 25° C. (room temperature (RT)) for 5-60 min, depending on the quantity and activity of the enzyme used.
The contents of the assay MTP were then transferred with the assistance of a 96 well cell harvester into a 96 well cation exchange MTP (filter MTP) and suction filtered. A single washing with […] of H2O (from a trough) was then performed.
The plate was then dried for 1 h at 60° C. in a drying cabinet. The bottom of the filter MTP was then carefully sealed from beneath with a “back seal”. 35 μl of scintillating material were then pipetted into each well. The top of the plate was also sealed with a “top seal”. After 1 hour's waiting time, the plate was assessed on the β-counter.

The structures appear in SMILES notation.

The compound `CCCc1cccc(NC2CC(C)(c3cccc(Cl)c3)OC2=O)n1` (stereo not shown) [Example 50, 5-(3-Chloro-phenyl)-5-methyl-3-(6-propyl-pyridin-2-ylamino)-dihydro-furan-2-one] registered an inhibition at 10 µM of 61%. `Cc1ccnc(NC2CC(C)(c3ccc(C)c(C)c3)OC2=O)c1` (stereo not shown) [Example 6, 5-(3,4-Dimethyl-phenyl)-5-methyl-3-(4-methyl-pyridin-2-ylamino)-dihydro-furan-2-one] had an inhibition at 10 µM of 40%. In turn, `CC1(c2ccc(C#N)cc2)CC(Nc2ncc(Br)cn2)C(=O)O1` (stereo not shown) [Example 26, 4-[4-(5-Bromo-pyrimidin-2-ylamino)-2-methyl-5-oxo-tetrahydro-furan-2-yl]-benzonitrile] had an inhibition at 10 µM of 43%. For the compound `COc1ccc(C2(C)CC(Nc3ncc(C(F)(F)F)cc3Cl)C(=O)O2)c(OC)c1` (stereo not shown) [Example 71, 3-(3-Chloro-5-trifluoromethyl-pyridin-2-ylamino)-5-(2,4-dimethoxy-phenyl)-5-methyl-dihydro-furan-2-one], at 10 µM the inhibition was 54%. The figure for `Cc1cccc(NC2CC(C)(c3ccc4c(c3)OCO4)OC2=O)n1` (stereo not shown) [Example 40, 5-Benzo[1,3]dioxol-5-yl-5-methyl-3-(6-methyl-pyridin-2-ylamino)-dihydro-furan-2-one] is 53%; for `CC(C)(C)c1ccc(C2(C)CC(Nc3ncccc3[N+](=O)[O-])C(=O)O2)cc1` (stereo not shown) [Example 18, 5-(4-tert-Butyl-phenyl)-5-methyl-3-(3-nitro-pyridin-2-ylamino)-dihydro-furan-2-one] it is 40%. For `COc1ccc(OC)c(C2(C)CC(Nc3ccccn3)C(=O)O2)c1` (stereo not shown) [Example 66, 5-(2,5-Dimethoxy-phenyl)-5-methyl-3-(pyridin-2-ylamino)-dihydro-furan-2-one], the inhibition at 10 µM came to 52%. As for `Cc1cc(C)cc(C2(C)CC(Nc3cc(C)cc(C)n3)C(=O)O2)c1` (stereo not shown) [Example 5, 5-(3,5-Dimethyl-phenyl)-3-(4,6-dimethyl-pyridin-2-ylamino)-5-methyl-dihydro-furan-2-one], the inhibition at 10 µM worked out at 58%. Compound `Cc1cc(C)nc(NC2CC(C)(c3ccc(Oc4ccccc4)cc3)OC2=O)c1` (stereo not shown) [Example 21, 3-(4,6-Dimethyl-pyridin-2-ylamino)-5-methyl-5-(4-phenoxy-phenyl)-dihydro-furan-2-one] gave an inhibition at 10 µM of 91%. Turning to `CC1(c2ccc(C#N)cc2)CC(Nc2ncc(Br)cc2[N+](=O)[O-])C(=O)O1` (stereo not shown) [Example 25, 4-[4-(5-Bromo-3-nitro-pyridin-2-ylamino)-2-methyl-5-oxo-tetrahydro-furan-2-yl]-benzonitrile], 10 µM produced 45% inhibition. `CC1(c2ccc(I)cc2)CC(Nc2ncccc2OCc2ccccc2)C(=O)O1` (stereo not shown) [Example 55, 3-(3-Benzyloxy-pyridin-2-ylamino)-5-(4-iodo-phenyl)-5-methyl-dihydro-furan-2-one] came in with an inhibition at 10 µM of 44%. As for `Cc1nc(NC2CC(C)(c3ccc(I)cc3)OC2=O)ccc1Br` (stereo not shown) [Example 54, 3-(5-Bromo-6-methyl-pyridin-2-ylamino)-5-(4-iodo-phenyl)-5-methyl-dihydro-furan-2-one], at 10 µM the inhibition was 70%. On to `CC(C)C1(c2ccccc2)CC(Nc2ncccn2)C(=O)O1` (stereo not shown) [Example 45, 5-Isopropyl-5-phenyl-3-(pyrimidin-2-ylamino)-dihydro-furan-2-one], for which the inhibition at 10 µM was found to be 58%. In turn, `CC(C)C1(c2ccccc2)CC(Nc2ncc(Br)cc2[N+](=O)[O-])C(=O)O1` (stereo not shown) [Example 42, 3-(5-Bromo-3-nitro-pyridin-2-ylamino)-5-isopropyl-5-phenyl-dihydro-furan-2-one] registered an inhibition at 10 µM of 41%. The figure for `CC1(c2ccc(Br)cc2)CC(Nc2ccc(Br)cn2)C(=O)O1` (stereo not shown) [Example 47, 5-(4-Bromo-phenyl)-3-(5-bromo-pyridin-2-ylamino)-5-methyl-dihydro-furan-2-one] is 54%; for `CC1(c2ccc(Oc3ccccc3)cc2)CC(Nc2ncccc2OCc2ccccc2)C(=O)O1` (stereo not shown) [Example 19, 3-(3-Benzyloxy-pyridin-2-ylamino)-5-methyl-5-(4-phenoxy-phenyl)-dihydro-furan-2-one] it is 40%; for `Cc1ccnc(NC2CC(C)(c3cc4ccccc4s3)OC2=O)c1` (stereo not shown) [Example 30, 5-Benzo[b]thiophen-2-yl-5-methyl-3-(4-methyl-pyridin-2-ylamino)-dihydro-furan-2-one] it is 41%.

As to `COc1ccc(C2(C)CC(Nc3cc(C)ccn3)C(=O)O2)cc1` (stereo not shown) [Example 75, 5-(4-Methoxy-phenyl)-5-methyl-3-(4-methyl-pyridin-2-ylamino)-dihydro-furan-2-one], 10 µM produced 48% inhibition.

As to `Cc1ccnc(NC2CC(C)(c3ccc4c(c3)OCO4)OC2=O)c1` (stereo not shown) [Example 37, 5-Benzo[1,3]dioxol-5-yl-5-methyl-3-(4-methyl-pyridin-2-ylamino)-dihydro-furan-2-one], the inhibition at 10 µM worked out at 50%. `Cc1cccc(C2(C)CC(Nc3cc(C)cc(C)n3)C(=O)O2)c1` (stereo not shown) [Example 11, 3-(4,6-Dimethyl-pyridin-2-ylamino)-5-methyl-5-m-tolyl-dihydro-furan-2-one]: 10 µM produced 81% inhibition. `CC1(c2ccc3c(c2)OCO3)CC(Nc2n[nH]cc2C#N)C(=O)O1` (stereo not shown) [Example 32, 3-(5-Benzo[1,3]dioxol-5-yl-5-methyl-2-oxo-tetrahydro-furan-3-ylamino)-1H-pyrazole-4-carbonitrile] gave an inhibition at 10 µM of 41%. For the compound `COc1ccccc1C1(C)CC(Nc2n[nH]cc2Br)C(=O)O1` (stereo not shown) [Example 63, 3-(4-Bromo-1H-pyrazol-3-ylamino)-5-(2-methoxy-phenyl)-5-methyl-dihydro-furan-2-one], the inhibition at 10 µM is 51%. The figure for `Cc1cc(C)nc(NC2CC(C)(c3cc4ccccc4o3)OC2=O)c1` (stereo not shown) [Example 29, 5-Benzofuran-2-yl-3-(4,6-dimethyl-pyridin-2-ylamino)-5-methyl-dihydro-furan-2-one] is 40%; for `CCOC(=O)c1c[nH]nc1NC1CC(C)(c2ccc(I)cc2)OC1=O` (stereo not shown) [Example 46, 3-[5-(4-Iodo-phenyl)-5-methyl-2-oxo-tetrahydro-furan-3-ylamino]-1H-pyrazole-4-carboxylic acid ethyl ester] it is 44%; for `Cc1cc(C)nc(NC2CC(C)(c3ccc4c(c3)CCCC4)OC2=O)c1` (stereo not shown) [Example 35, 3-(4,6-Dimethyl-pyridin-2-ylamino)-5-methyl-5-(5,6,7,8-tetrahydro-naphthalen-2-yl)-dihydro-furan-2-one] it is 42%. As for `CCOC(=O)c1c[nH]nc1NC1CC(C)(c2ccc3c(c2)OCO3)OC1=O` (stereo not shown) [Example 33, 3-(5-Benzo[1,3]dioxol-5-yl-5-methyl-2-oxo-tetrahydro-furan-3-ylamino)-1H-pyrazole-4-carboxylic acid ethyl ester], 10 µM produced 45% inhibition. The figure for `Cc1cccnc1NC1CC(C)(c2ccc(Br)cc2)OC1=O` (stereo not shown) [Example 59, 5-(4-Bromo-phenyl)-5-methyl-3-(3-methyl-pyridin-2-ylamino)-dihydro-furan-2-one] is 45%; for `Cc1cc(C)nc(NC2CC(C)(c3ccc(C)c(C)c3)OC2=O)c1` (stereo not shown) [Example 2, 5-(3,4-Dimethyl-phenyl)-3-(4,6-dimethyl-pyridin-2-ylamino)-5-methyl-dihydro-furan-2-one] it is 45%.

Broadly, the inhibition is the share of the control response that was lost under treatment. Read a low inhibition as a weak effect.

For the origin of these results see patent US6943181B2, “Use of substituted gamma-lactone compounds as pharmaceutical preparations” (Grunenthal GmbH, priority 2001, dated 2005).
